Values of other authors as cited in patent US11260055B2, “Oral pharmaceutical composition of lurasidone and preparation thereof” (PIRAMAL PHARMA LIMITED, priority 2017, dated 2022).

Settings: in water

Solubility: poor water solubility
SMILES: O=C1[C@@H]2[C@H]3CC[C@H](C3)[C@@H]2C(=O)N1C[C@@H]1CCCC[C@H]1CN1CCN(c2nsc3ccccc23)CC1 [Lurasidone]
